Reference: a melting point compilation (Tetko et al.; mined from patent text by program, amines drawn as free bases though some values may be those of a salt)

First: Cc1cnc2c(C#N)cnn2c1-c1ccc(Cl)cc1
Second: CC1Cc2cc(Cl)ccc2C(c2ccc([N+](=O)[O-])cc2)=NN1 (stereo unspecified)
The melting point of the first is higher: 154 to 157 °C for the first, 152 to 154 °C for the second.

First: CC(C)(C)c1ccc(C(=O)Nc2cn3cc(C#N)ccc3n2)cc1
Second: CC(=O)Nc1cccc(-n2ccnc2C)c1
The melting point of the first is higher: 300 to 301 °C for the first, 238 to 240 °C for the second.

First: COc1cccc(C2C(C(=O)O)CC(=O)N2c2ccccc2)c1 (stereo unspecified)
Second: CN1CCN(c2cccc3c2C[C@H](NC(=O)c2csc(-c4ccccc4)n2)CC3)CC1
The melting point of the first is lower: 145 to 149 °C for the first, 175 to 176 °C for the second.

Compared with `COn1nnc2cc3c(=O)n(C(C)Cn4ncnn4)nnc3cc2c1=O` (stereo unspecified), `CCOC(=O)c1ncn2c1CNC(=O)c1cc(OC)ccc1-2` is higher in melting point: 227 to 231 °C for the first, 240 °C for the second.

Compared with `Cc1nnc(-c2nnc(SCCC(F)=C(F)F)o2)o1`, `Cc1oc(-c2ccccc2)nc1CCOc1ccc(CO)cc1` is higher in melting point: 77 to 79 °C for the first, 110 to 113 °C for the second.

First: COc1ccc(-c2ccc(-c3ccc(F)cc3)nc2-c2ccc(OCc3ccccc3)cc2)cc1
Second: COc1ccc(-c2cc(=O)n(Cc3cccnc3)nc2-c2ccc(OC)cc2)cc1
The melting point of the first is lower: 114 to 115 °C for the first, 167 to 168 °C for the second.

Going from `O=C(O)c1cnc2cc(O)ccc2c1` to `CC1CCN(c2nc(N)c3ccccc3n2)CC1`, the melting point falls from greater than 260 °C to 190 °C.

Compared with `COC(=O)c1ccccc1NC(=O)N(C)C`, `O=C(NCCCN1NC=NN1)c1ccccc1[N+](=O)[O-]` is higher in melting point: 85 to 90 °C for the first, 148 to 150 °C for the second.

First: CN1CCN(c2c(F)c(NCc3ccccc3)c3c(=O)c(C(=O)O)cn(C4CC4)c3c2F)CC1
Second: Nc1ccc(F)cc1CCN1CCN(c2nsc3ccccc23)CC1
The melting point of the first is higher: 132 to 133 °C for the first, 115 °C for the second.

First: Cc1cc(OCc2coc(/C=C/c3ccc(C(F)(F)F)cc3)n2)ccc1CS(=O)CCc1ccnn1C (stereo unspecified)
Second: COc1cc(CON=C(CCC(=O)O)c2ccccc2)ccc1OCc1nc(-c2ccco2)oc1C
The melting point of the first is higher: 161 to 162 °C for the first, 131 to 132 °C for the second.

Compared with `O=C1CCC(CCC(=O)OCc2cccc(Cl)c2)N1` (stereo unspecified), `CCOC(=O)CCCC(=O)CNC(=O)c1csc(NC(=O)NCc2ccccc2)n1` is higher in melting point: 90 to 91 °C for the first, 135 to 136 °C for the second.

First: Cc1cc(-n2cncn2)ccc1N
Second: Cc1ccc(N2CCN(Cc3c[nH]c4ncccc34)CC2)cc1
The melting point of the first is lower: 122 to 125 °C for the first, 220 to 222 °C for the second.

Compared with `COc1ccc(-c2cc3cc(OC)cc(CC#N)c3o2)cc1`, `COc1ccc(N(N)Cc2ccc(Cl)cc2)cc1` is lower in melting point: 149 to 150 °C for the first, 55 °C for the second.

First: CSCOC1CCC2C3CCC4=CC(=O)C=CC4(C)C3(F)C(O)CC12C (stereo unspecified)
Second: CN1[C@H]2CC[C@@H]1[C@@H](CO)[C@@H](c1ccc(F)cc1)C2
The melting point of the first is higher: 224 to 225 °C for the first, 79 to 80 °C for the second.

Compared with `O=[N+]([O-])c1cc(S(=O)(=O)NC(CO)CO)sc1Cl`, `CCOc1ccc2c(c1)n(C1CCCCC1)c(=O)n2S(=O)(=O)c1ccc(C(=O)NC(C)(C)CO)cc1OC` is higher in melting point: 132 °C for the first, 218 °C for the second.

First: CN1CCN(Cc2ccc(-c3cc4c(Nc5cccc6[nH]ccc56)c(C#N)cnc4s3)cc2)CC1
Second: CCOC(=O)Cc1ccc(-n2c(-c3cccnc3N)nc3ccc(-c4cccnc4)nc32)cc1
The melting point of the first is higher: greater than 245 °C for the first, 155 to 157 °C for the second.

First: c1cc2c(cn1)ncn2CCCCc1nnnn1C1CCCCC1
Second: O=C(CN1CCSCC1)N1CCC(C2c3ccc(Cl)c(Br)c3CCc3cc(Br)cnc32)CC1 (stereo unspecified)
The melting point of the first is lower: 93 to 95 °C for the first, 172 to 174 °C for the second.

`CC(O)c1ccc(C2(C(C)(C)C)OCCO2)cc1` (stereo unspecified) and `CC1(C)C=Cc2cc(C(=O)NCCCCc3ccccc3)ccc2O1` cannot be ordered by melting point: 67 to 70 °C for the first, 65 to 70 °C for the second.

First: CCCCCC12CCC(C(=O)O)(CC1)CC2
Second: CCCCCCCCCCCCCCCCN=C=O
The melting point of the first is higher: 160 °C for the first, 107 to 109 °C for the second.

Compared with `O=S(=O)(Nc1ccc2c(OCc3cccc(-c4cc(Cl)cc(Cl)c4)c3)cccc2c1)C(F)(F)F`, `CC(=O)Nc1nc(C#N)cs1` is higher in melting point: 142 to 143 °C for the first, 185 to 188 °C for the second.

`CCOC(=O)C1CCCC1NC(=O)C=C(C)OC` (stereo unspecified) gave a melting point of 74 °C.
